# Measurements published in patent US20190153021A1, “THERAPEUTIC COMPOUNDS” (UNIVERSITY OF IOWA RESEARCH FOUNDATION, priority 2015, published 2019).
# Experiments:
# [1] = simplified steroidal aglycone; cited from earlier work
# [2] = In vivo efficacy of OSW-1
# [3] = Metabolic stability and pharmacokinetics, cleavage of ester groups in mouse blood; assay type: in vitro ADME
# [4] = test system: NCI 60 cell-line tumor panel; conditions: cited from earlier work
# dormant cancer cells = conditions: independent of cell cycle; cited from earlier work
SMILES,in vitro anticancer activity compared with compound 1 [1],in vivo efficacy [2],pharmacokinetics (PK) [3],"metabolic stability: cleavage of the two ester groups ([3]; enzymes in mouse blood, gives major metabolite 2)",IC50 ([4]; mean over NCI 60-cell in vitro screen) [nM],"anticancer activities, times more potent than many well-known anticancer drugs in clinical use ([4]; relative potency)",concentration that effectively kills dormant cancer cells (dormant cancer cells)
COc1ccc(C(=O)OC2C(OC3C(O)COC(O[C@H]4C[C@@H]5[C@H](CC[C@H]6[C@H]5CC=C5C[C@@H](O)CC[C@@]56C)[C@H]4[C@H](C)CCCC(C)C)C3OC(C)=O)OCC(O)C2O)cc1 (stereo partly shown) [Compound 3],similar,,,,,,
COc1ccc(C(=O)O[C@H]2[C@H](O[C@@H]3[C@@H](OC(C)=O)[C@H](O[C@H]4C[C@H]5[C@@H]6CC=C7C[C@@H](O)CC[C@]7(C)[C@H]6CC[C@]5(C)[C@@]4(O)[C@H](C)C(=O)CCC(C)C)OC[C@@H]3O)OC[C@@H](O)[C@@H]2O)cc1 [OSW-1],,relatively weak,poor,quickly cleaved,0.78,10-100 times,sub-nM
